According to US20240336638A1, “IMIDAZOLE COMPOUND, AND INTERMEDIATE AND APPLICATION THEREOF” (priority 2021, published 2024):

Key:
[1] = system: AA-induced platelet aggregation; test: Inhibitory effect on AA-induced platelet aggregation in rats in vitro (washed platelets); assay type: cell-based, rat; conditions: 1*10^−4 M
Protocol: Several experimental groups were established, including a blank control group, an AA (arachidonic acid) model control group, and various test compounds. Each test compound had three concentration groups: 10^−3 M, 10^−4 M, and 10^−5 M. The data from the blank and model control group were shared among the different drug concentration groups as a control.
Male SD rats were anesthetized with 3% chloral hydrate (300 mg/kg) through intraperitoneal injection. After being fixed in a supine position, the skin of the neck was cut about 3 cm, bluntly separated with a hemostat, and the trachea was exposed after the common carotid artery was separated. The distal end of the common carotid artery was ligated with a fine thread, and the proximal end was clamped with an arterial clamp for vascular intubation. After the intubation was fixed, the artery clamp was opened, and the blood was placed into a blood collection tube containing 3.8% trisodium citrate so that the blood was mixed well with the 3.8% trisodium citrate in a volume ratio of 9:1.
The prepared anticoagulant blood was mixed well and centrifuged for 10 minutes at 500 rpm, then the upper layer of plasma was aspirated to obtain platelet-rich plasma (PRP), and the PRP was centrifuged again for 5 minutes at 3,000 rpm. The supernatant was discarded, and the platelet precipitate was obtained, which was washed once with Ca^2+-free HEPES-Tyrode's buffer, then centrifuged at 3,000 rpm for 5 minutes. The supernatant was discarded, and the platelets were resuspended with Ca^2+-free HEPES-Tyrode's buffer to obtain the washed platelets.
First, 300 μL of Ca^2+-containing HEPES-Tyrode's solution was taken into the test cup, put into the test wells, and calibrated by pressing the “PPP” key. Subsequently, 240 μL of the washed platelets were added to the test cup, then added with 30 μL of different concentrations of drug solution, incubated for 10 minutes at 37° C. in a preheated bath, and then put into the test wells. 3 μL of 100× CaCl2 solution (final concentration of 0.2 g/L) and 30 μL of inducer (final concentration of AA of 800 μM) were added to the test wells, and then the “Start” key was pressed immediately. The maximum aggregation rate was recorded every 60 s. The measurement was repeated three times for each concentration for 10 minutes, and the aggregation curve was plotted.
The platelet aggregation inhibition rate was calculated with the following formula:
Inhibition rate (%)=(maximum aggregation rate in the model control group−maximum aggregation rate in the administration group)/maximum aggregation rate in the model control group×100%
All data were expressed as mean±standard deviation (mean±SD). SPSS 22.0 software was used for statistical analysis of the data. Intergroup data were analyzed using one-way ANOVA, with P<0.05 considered as statistically significant and P<0.01 considered as highly significant.

MCAO/R rats = test: Therapeutic administration (i.v.) in middle cerebral artery occlusion/reperfusion (MCAO/R) rats; assay type: in vivo, rat; conditions: for Bleeding time / Brain water content (%) / Cerebral infarction rate (%) / Clotting time / Neurological function score: once a day for 3 days, mean ± SD, n = 8; for Neurological function score: modified Bederson score
Protocol: Male SD rats weighing 250 to 300 g were taken, and the rats in each group fasted for 12 hours before modeling, while water was not restricted. According to the method of Longa et al.^[1], a rat model of MCAO/R was established by occluding the blood flow of internal carotid artery using the thread embolization method. The rats were anesthetized with 3% chloral hydrate (300 mg/kg, 1 mL/100 g body weight) through intraperitoneal injection and fixed in the supine position on the operating table. A midline incision was made in the neck, and the right common carotid artery was isolated using forceps and threaded for later use. The external and internal carotid arteries were isolated from the bifurcation of the common carotid artery. A single thread was threaded through the internal carotid artery, and two threads were threaded through the external carotid artery. Both distal and proximal ends were ligated, and the middle part of the ligation site was cut using ophthalmic scissors. The proximal main trunk of the external carotid artery was isolated and reserved for later use. The prepared cotton thread was used to half-ligate the common carotid artery (tying a slipknot), and the thread prepared for the internal carotid artery was tightened with hemostatic forceps, temporarily occluding the blood flow of the internal carotid artery. A small incision at the proximal main trunk of the external carotid artery was made using ophthalmic scissors, and then, the fishing line was held with straight forceps, inserted from this incision, and slowly advanced through the isolated proximal main trunk of the external carotid artery towards the intracranial direction of the internal carotid artery. The advancement was stopped at a predetermined position, and then the thread of the internal carotid artery that was tightened with the hemostatic forceps was loosened. […] Another thread was threaded and tightened around the proximal main trunk of the external carotid artery and the fishing line that had already been inserted into the predetermined position. The half-ligated thread on the common carotid artery was then loosened, and the skin was subsequently sutured. After 2 hours of ischemia, a small section of the fishing line was pulled out. […] After rats in the blank control group were anesthetized, only the bifurcation of the internal and external carotid arteries was exposed without the occlusion of the MCA.
Successfully modeled rats (neurological function score of 3 after reperfusion) were taken and divided into 20 groups (8 rats for each) according to the random number table method. The groups were divided into a model control group, three dose groups (high, 12 mg/kg, 2.4 mg/mL; medium, 6 mg/kg, 1.2 mg/mL; low, 3 mg/kg, 0.6 mg/mL) for each of the six test compounds, and a positive drug Ozagrel group (6 mg/kg, 1.2 mg/mL), respectively. Both blank and model control groups were administered equal volumes of mixed solvents, and the rats in each group were administered by tail vein injection (i.v.) 2 hours after reperfusion, once a day for 3 consecutive days, with a volume of 0.5 mL/100 g body weight.
Ten minutes after the last administration, the neurological function of the animals was graded according to the modified Bederson scoring method. The standard is as follows[2]: • 0 point: no neurological symptoms; • 1 point: when the rat is suspended by lifting its tail, the forelimb on the surgical side of the rat was flexed and pressed against the chest wall; • 2 points: on a smooth plane, when the rat is pushed from the surgical side to the opposite side, the resistance is less than when it is moved to the same side; • 3 points: the animal moves around or in circles when moving freely; • 4 points: flaccid paralysis, no spontaneous movement of limbs.
After Bederson scoring, the rats were executed by cervical dislocation, and the whole brain was removed and weighed. After weighing, the whole brain was placed in a −20° C. refrigerator for 20 minutes. […]

[2] = medium dose 6 mg/kg i.v. (Ozagrel group 6 mg/kg)

## Cc1cc([C@@H]2C[C@H]2C(=O)O)ccc1Cn1cnc(Cl)c1 [Compound 4, (1R,2R)-2-(4-((4-Chloro-1H-imidazol-1-yl)methyl)-3-methylphenyl)cyclopropane-1-carboxylic acid]
[1]
  significant inhibition of AA-induced platelet aggregation: can significantly inhibit

## Cc1cc(Cn2cnc(F)c2)ccc1[C@@H]1C[C@H]1C(=O)O [Compound 5, (1R,2R)-2-(4-((4-Fluoro-1H-imidazol-1-yl)methyl)-2-methylphenyl)cyclopropane-1-carboxylic acid]
[1]
  significant inhibition of AA-induced platelet aggregation: can significantly inhibit

## Cc1cc(Cn2ccnc2)ccc1[C@@H]1C[C@H]1C(=O)O [Compound 7, (1R,2R)-2-(4-((1H-Imidazol-1-yl)methyl)-2-methylphenyl)cyclopropane-1-carboxylic acid]
[1]
  significant inhibition of AA-induced platelet aggregation: can significantly inhibit

## Cc1cc([C@@H]2C[C@H]2C(=O)O)ccc1Cn1cnc(F)c1 [Compound 8, (1R,2R)-2-(4-((4-Fluoro-1H-imidazol-1-yl)methyl)-3-methylphenyl)cyclopropane-1-carboxylic acid]
[1]
  significant inhibition of AA-induced platelet aggregation: can significantly inhibit

## O=C(O)[C@@H]1C[C@H]1c1ccc(Cn2cnc(Cl)c2)cc1F [Compound 13, (1R,2R)-2-(4-((4-Chloro-1H-imidazol-1-yl)methyl)-2-fluorophenyl)cyclopropane-1-carboxylic acid]
[1]
  significant inhibition of AA-induced platelet aggregation: can significantly inhibit
MCAO/R rats; high dose 12 mg/kg i.v.
  Bleeding time: 301.25 ± 46.40 s
  Brain water content (%): 80.73 ± 1.10%
  Cerebral infarction rate (%): 14.30%
  Clotting time: 163.63 s
  Neurological function score: 1.50 ± 0.53
MCAO/R rats; low dose
  infarct size: can also significantly reduce
MCAO/R rats; low dose 3 mg/kg i.v.
  Bleeding time: 303.00 ± 39.59 s
  Brain water content (%): 80.87 ± 2.84%
  Cerebral infarction rate (%): 23.02%
  Clotting time: 146.94 ± 24.73 s
  Neurological function score: 2.00 ± 0.53
MCAO/R rats; medium and high doses
  coagulation time of rats: can significantly prolong
MCAO/R rats; [2]
  Bleeding time: 314.50 ± 41.83 s
  Brain water content (%): 80.58 ± 1.56%
  Cerebral infarction rate (%): 22.15%
  Clotting time: 164.56 s
  Neurological function score: 1.88 ± 0.64

## O=C(O)[C@@H]1C[C@H]1c1ccc(Cn2cnc(Cl)c2)c(F)c1 [Compound 14, (1R,2R)-2-(4-((4-Chloro-1H-imidazol-1-yl)methyl)-3-fluorophenyl)cyclopropane-1-carboxylic acid]
[1]
  significant inhibition of AA-induced platelet aggregation: can significantly inhibit

## O=C(O)[C@H]1C[C@@H]1c1ccc(Cn2ccnc2)cc1 [Compound 20, (1S,2S)-2-(4-((1H-Imidazol-1-yl)methyl)phenyl)cyclopropane-1-carboxylic acid]
[1]
  significant inhibition of AA-induced platelet aggregation: can significantly inhibit

## Cc1cc([C@H]2C[C@@H]2C(=O)O)ccc1Cn1cnc(Cl)c1 [Compound 24, (1S,2S)-2-(4-((4-Chloro-1H-imidazol-1-yl)methyl)-3-methylphenyl)cyclopropane-1-carboxylic acid]
[1]
  significant inhibition of AA-induced platelet aggregation: can significantly inhibit

## Cc1cc(Cn2cnc(F)c2)ccc1[C@H]1C[C@@H]1C(=O)O [Compound 25, (1S,2S)-2-(4-((4-Fluoro-1H-imidazol-1-yl)methyl)-2-methylphenyl)cyclopropane-1-carboxylic acid]
[1]
  significant inhibition of AA-induced platelet aggregation: can significantly inhibit

## Cc1cc(Cn2ccnc2)ccc1[C@H]1C[C@@H]1C(=O)O [Compound 27, (1S,2S)-2-(4-((1H-Imidazol-1-yl)methyl)-2-methylphenyl)cyclopropane-1-carboxylic acid]
[1]
  significant inhibition of AA-induced platelet aggregation: can significantly inhibit

## Cc1cc([C@H]2C[C@@H]2C(=O)O)ccc1Cn1cnc(F)c1 [Compound 28, (1S,2S)-2-(4-((4-Fluoro-1H-imidazol-1-yl)methyl)-3-methylphenyl)cyclopropane-1-carboxylic acid]
[1]
  significant inhibition of AA-induced platelet aggregation: can significantly inhibit

## O=C(O)[C@H]1C[C@@H]1c1ccc(Cn2cnc(Cl)c2)c(Cl)c1 [Compound 31, (1S,2S)-2-(3-Chloro-4-((4-chloro-1H-imidazol-1-yl)methyl)phenyl)cyclopropane-1-carboxylic acid]
[1]
  significant inhibition of AA-induced platelet aggregation: can significantly inhibit

## O=C(O)[C@H]1C[C@@H]1c1ccc(Cn2cnc(Cl)c2)cc1F [Compound 33, (1S,2S)-2-(4-((4-Chloro-1H-imidazol-1-yl)methyl)-2-fluorophenyl)cyclopropane-1-carboxylic acid]
[1]
  significant inhibition of AA-induced platelet aggregation: can significantly inhibit

## O=C(O)[C@H]1C[C@@H]1c1ccc(Cn2cnc(Cl)c2)c(F)c1 [Compound 34, (1S,2S)-2-(4-((4-Chloro-1H-imidazol-1-yl)methyl)-3-fluorophenyl)cyclopropane-1-carboxylic acid]
[1]
  significant inhibition of AA-induced platelet aggregation: can significantly inhibit

## O=C(O)[C@H]1C[C@@H]1c1ccc(Cn2ccnc2)c(F)c1 [Compound 35, (1S,2S)-2-(4-((1H-Imidazol-1-yl)methyl)-3-fluorophenyl)cyclopropane-1-carboxylic acid]
[1]
  significant inhibition of AA-induced platelet aggregation: can significantly inhibit

## O=C(O)[C@H]1C[C@@H]1c1ccc(Cn2cnc(F)c2)cc1F [Compound 37, (1S,2S)-2-(2-Fluoro-4-((4-fluoro-1H-imidazol-1-yl)methyl)phenyl)cyclopropane-1-carboxylic acid]
[1]
  significant inhibition of AA-induced platelet aggregation: can significantly inhibit

## O=C(O)[C@H]1C[C@@H]1c1ccc(Cn2cnc(F)c2)c(Cl)c1 [Compound 38, (1S,2S)-2-(3-Chloro-4-((4-fluoro-1H-imidazol-1-yl)methyl)phenyl)cyclopropane-1-carboxylic acid]
[1]
  significant inhibition of AA-induced platelet aggregation: can significantly inhibit
